This note sets out measurements from patent US10660935B2, “Methods for ameliorating memory impairment in a memory disorder caused by neuronal cell death or Abeta aggregation using a peptide” (JAPAN BIO PRODUCTS Co., Ltd., priority 2017, dated 2020).

Assay [1] has as its system Aβ25-35-treated murine cerebral cortical neural cells. The assay can be described thus: Quantitative experiment for dendritic elongation. The following applies: compared with Vehicle. It is filed as cell-based, ddY mouse. On the procedure: (§1) Murine cerebral cortical neural cells were prepared by the following method. Fetuses extracted from a 14-day […] ddY mouse (Japan SLC, Shizuoka) were washed with PBS, then decapitated, and added in a medium made for primary culture [12% equine serum (Life Technologies), 2 mM L-glutamic acid, and 0.6% glucose dissolved in Neurobasal media (Life Technologies, Carlsbad, Calif., USA)]. Only cerebral cortex was isolated in the medium under a stereomicroscope (SZ-61, Olympus, Tokyo).
(§2) Cerebral cortex was cut into about 1 mm-sized cubes in a safety cabinet. Centrifugation was performed at 700 rpm for 3 minutes, then the supernatant was removed, and to the precipitate was added 2 mL of 0.05% trypsin-0.53 mM EDTA solution (Life Technologies) to make a suspension. The suspension was incubated at 37° C. for 15 minutes with stirring for every 5 minutes, loaded with 4 mL of the medium, centrifuged at 700 rpm for 3 minutes to remove the supernatant, and to the precipitate was added 2 mL of 600 U/mL DNase I (Wako Pure Chemical Co., Ltd)-0.03% trypsin inhibitor (Life Technologies)-PBS solution to make a suspension.
(§3) The suspension was further incubated at 37° C. for 15 minutes with stirring for every 5 minutes, loaded with 4 mL of the medium, and centrifuged at 700 rpm for 3 minutes. The sediment was loaded with 4 mL of a calcium-magnesium-free Hank's balanced salt solution (HBSS), and centrifuged at 700 rpm for 3 minutes. 4 mL of the medium was added to the sediment.
The sediment loaded with the medium was gently suspended with a Pasteur pipette in which its tip had been heated and smoothed, until the cell clumps were invisible, and then filtrated with a 70 μm nylon cell strainer (Falcon, N.J., USA). Cell culture was performed in an 8-well chamber slide (falcon). Cells were seeded into the one coated the day before [in which Poly-D-Lysine (PDL, Wako Pure Chemical Co., Ltd) diluted with PBS to 0.005 mg/mL was plated and incubated at 37° C.; on the day of culture, it was washed twice with sterilized purified water.] Culture was started at 37° C. and 10% CO2 under saturated vapor.
In quantitative experiment for dendritic elongation, the medium was all changed with a fresh medium containing B-27 supplement (Invitrogen) instead of equine serum 5 hours and 3 days after start of culture. At medium change after 3 days, the pre-aggregated partial sequence fragment of amyloid beta (Aβ25-35) was added up to 10 μM. After another 3 days, each peptide or solvent was added when the medium was all changed into a fresh one, and after another 4 days, immunostaining was performed.
Immunostaining for quantifying dendritic elongation was performed as follows. After the end of the drug treatment term, the medium was removed and the cells were washed with PBS, added with 4% paraformaldehyde (PFA, Wako Pure Chemical Co., Ltd)-PBS solution, left standing at room temperature for an hour, and fixed. Wash with 0.3% triton X-100 (Wako Pure Chemical Co., Ltd)-PBS solution for 5 minutes was performed twice. Then, a primary antibody solution (0.3% triton X-100-PBS solution, 1% normal goat serum [Wako Pure Chemical Co., Ltd], a primary antibody) was added, and reacted at 4° C. overnight.
For the primary antibody, rabbit anti-MAP2 polyclonal antibody (1:2000) (Abcam, Cambridge, UK) was used. The next day, the primary antibody solution was removed; wash was performed twice with 0.3% triton X-100-PBS solution for 5 minutes; and then a secondary antibody solution [0.3% triton X-100-PBS solution, Alexa Fluor 488-labeled goat anti-rabbit IgG antibody (1:200) (Molecular Probes, Eugene, Oreg., USA)] was added, and reacted under shading at room temperature for 2 hours. After the reaction, the secondary antibody solution was removed, and the cells were washed twice with PBS for 5 minutes, stained for nuclei with DAPI staining, and then embedded with Aqua-Poly/Mount (Polysciences, Warrington, USA). […]

Assay [2] has the same test system. Nature of the assay: Quantitative experiment for presynaptic density. It is filed as cell-based, ddY mouse. The settings on record: 21-day culture. On the procedure:
as §1, §2, §3
The sediment loaded with the medium was gently suspended with a Pasteur pipette in which its tip had been heated and smoothed, until the cell clumps were invisible, and then filtrated with a 70 μm nylon cell strainer (Falcon, N.J., USA). Cell culture was performed in an 8-well chamber slide (falcon). […]
Immunostaining for quantifying presynaptic density was performed as follows. […]

In the next assay the test system is 5XFAD mice. The assay can be described thus: Object recognition memory test. It is filed as in vivo, mouse. The settings on record: continuous intraventricular infusion for 28 days keeping 10 nM in cerebrospinal fluid, 24 hours interval between training and testing, P<0.05. From the text: Alzheimer's disease model mice: Transgenic mice that are animal models for Alzheimer's disease (5XFAD) were obtained from the Jackson Laboratories (Bar Harbor, Me., USA). 5XFAD mice overexpress human APP695 cDNA having mutations of Swedish (K670N and M671L), Florida (I716V), and London (V717I), and human PS1 cDNA (mutations at M146L and L286V) under transcriptional control of the neuron-specific murine Thy-1 promoter (Oakley, H. et al., J Neurosci, 26, 10129-10140, 2006). Those were maintained by crossing B6/SJL F1 breeders with hemizygous transgenic mice. […]
GPPGPAG (SEQ ID NO: 1) was dissolved in an artificial cerebrospinal fluid, and an osmotic minipump model 1004 (ALZET Osmotic Pumps, Cupertino, USA) containing the solution inserted and fixed into the right lateral ventricle of each 5XFAD mouse to inject the solution into the lateral ventricle continuously for 28 days. […] Specifically, from a peptide flow of 0.11 μL/h from the pump and a production of cerebrospinal fluid of 18 μL/h in the mouse, the concentration of the peptide solution was calculated such that the peptide concentration in the murine cerebrospinal fluid would be kept at 10 nM (which was an effective concentration in the cell experiments), and the solution prepared thereby was loaded into the pump. […]

[3] abbreviates: posttreatment with 1 nM peptide for 4 days after 10 μM Aβ25-35 for 3 days.
[4] abbreviates: posttreatment with 10 nM peptide for 4 days after 10 μM Aβ25-35 for 3 days.

For the substance “GPPGPA: comparison peptide of amino acid sequence GPPGPA (SEQ ID NO: 4) (P4)”, the “density of dendrites (length of MAP2-positive dendrites per neural cell)” value in assay [1] (setting [3]) and in assay [1] (setting [4]) was “neither treatment with 1 nM nor 10 nM was any effect observed” in each case.
With GPPGPAG (P1), the “presynaptic density on dendrites (synaptophysin-positive area per dendrite length)” value is given as “concentration-dependent increase in presynaptic density” in assay [2] (posttreatment with 1 nM, 10 nM and 100 nM, 10 μM Aβ25-35 for 3 days, peptide for 4 days); “significant increase” in assay [2] (posttreatment with 10 nM, 10 μM Aβ25-35, compared with Vehicle); “significant increase” in assay [2] (posttreatment with 100 nM, 10 μM Aβ25-35, compared with Vehicle). Further, the “exploratory preferential index at the testing stage relative to the training stage” value in the assay on 5XFAD mice is on record as “significantly increased”. Also, the “density of dendrites (length of MAP2-positive dendrites per neural cell)” value in assay [1] (setting [4]) is “significant increase in density of dendrites”.
Consider “GPPGPP: comparison peptide of amino acid sequence GPPGPP (SEQ ID NO: 3) (P3)”, for which the “density of dendrites (length of MAP2-positive dendrites per neural cell)” value in assay [1] (setting [3]) and in assay [1] (setting [4]) was “neither treatment with 1 nM nor 10 nM was any effect observed” each time.
As to GPPGPPG (P2), the “density of dendrites (length of MAP2-positive dendrites per neural cell)” value in assay [1] (setting [3]) and in assay [1] (setting [4]) was “neither treatment with 1 nM nor 10 nM was any effect observed” each time.
Turning to “PPGPAG: comparison peptide of amino acid sequence PPGPAG (SEQ ID NO: 5) (P5)”, the “density of dendrites (length of MAP2-positive dendrites per neural cell)” value in assay [1] (setting [3]) and in assay [1] (setting [4]) was “neither treatment with 1 nM nor 10 nM was any effect observed” throughout.
